According to ChEMBL document CHEMBL1201862, “PubChem BioAssay data set” (2004):
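Each compound was tested at five concentrations against cells in 96-well plates for 48 hours. GI50 = concentration required for 50% inhibition of growth.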 Calls of active or inactive are those of the source. No stated cut-off is given here; in the data, active = GI50 up to about 1.1 µM and inactive = higher.

How the values were obtained:
Assay in all cases: NCI anticancer screen, dose series, 48 h
NCI-H226 = test system: NCI-H226
MDA-N = test system: MDA-N
UACC-62 = test system: UACC-62
NCI-H23 = test system: NCI-H23
OVCAR-8 = test system: OVCAR-8
786-0 = test system: 786-0
HCT-116 = test system: HCT-116
Malme-3M = test system: Malme-3M
MDA-MB-231 = test system: MDA-MB-231
M14 = test system: M14
U-251 = test system: U-251
MCF7 = test system: MCF7
SR = test system: SR
BT-549 = test system: BT-549
SW-620 = test system: SW-620
EKVX = test system: EKVX
HOP-92 = test system: HOP-92
SF-268 = test system: SF-268
PC-3 = test system: PC-3

Measured: GI50

Cn1c(=O)c2c(nc(C(=N)SCC(=O)O)n2C)n(C)c1=O
inactive: NCI-H226 58.9 µM | MDA-N 36.2 µM | UACC-62 34.4 µM | NCI-H23 27.7 µM | OVCAR-8 42.7 µM | 786-0 45.7 µM | HCT-116 26.5 µM | Malme-3M 45.1 µM | MDA-MB-231 > 100 µM | M14 43.5 µM | U-251 95.9 µM | MCF7 38.5 µM | SR 22.7 µM | BT-549 41.1 µM | SW-620 52.1 µM | EKVX 29.1 µM | HOP-92 36.6 µM | SF-268 39.3 µM | PC-3 48.4 µM

Cc1ccc(Nc2nnc(-c3ccc4c(c3)OCO4)o2)c(C)c1
inactive: NCI-H226 > 100 µM | MDA-N > 100 µM | UACC-62 32.8 µM | NCI-H23 > 100 µM | OVCAR-8 55.1 µM | 786-0 41.4 µM | HCT-116 > 100 µM | Malme-3M > 100 µM | MDA-MB-231 62.2 µM | M14 > 100 µM | U-251 39.2 µM | MCF7 38.8 µM | SR 31.1 µM | BT-549 > 100 µM | SW-620 > 100 µM | EKVX 82 µM | HOP-92 41.9 µM | SF-268 64.4 µM | PC-3 50.1 µM

Nc1nc(N)nc(CCCc2nc(N)nc(N)n2)n1
inactive: NCI-H226 > 100 µM | MDA-N > 100 µM | UACC-62 > 100 µM | NCI-H23 > 100 µM | OVCAR-8 > 100 µM | 786-0 > 100 µM | HCT-116 > 100 µM | Malme-3M > 100 µM | MDA-MB-231 > 100 µM | M14 > 100 µM | U-251 > 100 µM | MCF7 > 100 µM | SR > 100 µM | BT-549 > 100 µM | SW-620 > 100 µM | EKVX > 100 µM | HOP-92 > 100 µM | SF-268 > 100 µM | PC-3 > 100 µM

COC(=O)[C@@]1(Cc2ccc(OC(C)=O)cc2)Cc2cc3ccccc3n2N1
inactive: NCI-H226 63.4 µM | MDA-N 26.5 µM | UACC-62 57.4 µM | NCI-H23 25.3 µM | OVCAR-8 50.8 µM | 786-0 33.7 µM | HCT-116 35 µM | Malme-3M 47.5 µM | MDA-MB-231 29.2 µM | M14 39.4 µM | U-251 30.1 µM | MCF7 29.9 µM | SR 13.5 µM | BT-549 28.2 µM | SW-620 29.2 µM | EKVX 23.8 µM | HOP-92 75 µM | SF-268 60.4 µM | PC-3 30 µM

O=C1NC(NNc2ccccc2)=N/C1=C\c1ccccc1O
inactive: NCI-H226 86.1 µM | MDA-N 71.3 µM | UACC-62 53.3 µM | NCI-H23 39.1 µM | OVCAR-8 > 100 µM | 786-0 62.5 µM | HCT-116 48.2 µM | Malme-3M > 100 µM | MDA-MB-231 68.2 µM | M14 97.1 µM | U-251 70.5 µM | MCF7 40.4 µM | SR > 100 µM | BT-549 21 µM | SW-620 58.1 µM | EKVX 66.8 µM | HOP-92 55 µM | SF-268 > 100 µM | PC-3 33.6 µM

N#CC(O)CCOCc1ccccc1 (stereo not given)
inactive: NCI-H226 > 100 µM | MDA-N 86.7 µM | UACC-62 > 100 µM | NCI-H23 > 100 µM | OVCAR-8 > 100 µM | 786-0 78.7 µM | HCT-116 66.5 µM | Malme-3M > 10 µM | MDA-MB-231 > 100 µM | M14 > 100 µM | U-251 > 100 µM | MCF7 41.6 µM | SR > 100 µM | BT-549 > 100 µM | SW-620 45.4 µM | EKVX > 100 µM | HOP-92 65.2 µM | SF-268 5.56 µM | PC-3 > 100 µM

O=C1NC(=O)/C(=C/c2ccc(S(=O)(=O)N/N=C\C(O)C(O)C(O)C(O)CO)cc2)N1 (stereo not given)
inactive: NCI-H226 > 100 µM | MDA-N > 100 µM | UACC-62 > 100 µM | NCI-H23 > 100 µM | OVCAR-8 > 100 µM | 786-0 > 100 µM | HCT-116 > 100 µM | Malme-3M > 100 µM | MDA-MB-231 > 100 µM | M14 > 100 µM | U-251 > 100 µM | MCF7 > 100 µM | SR > 100 µM | BT-549 > 100 µM | SW-620 > 100 µM | EKVX > 100 µM | HOP-92 > 100 µM | SF-268 > 100 µM | PC-3 > 100 µM

c1ccc(-c2ccc(-c3cc4ccccc4[nH]3)cc2)cc1
inactive: NCI-H226 > 100 µM | MDA-N > 100 µM | UACC-62 > 100 µM | NCI-H23 > 100 µM | OVCAR-8 > 100 µM | 786-0 > 100 µM | HCT-116 > 100 µM | Malme-3M > 100 µM | MDA-MB-231 > 100 µM | M14 > 100 µM | U-251 > 100 µM | MCF7 > 100 µM | SR > 100 µM | BT-549 > 100 µM | SW-620 > 100 µM | EKVX > 100 µM | HOP-92 > 100 µM | SF-268 > 100 µM | PC-3 > 100 µM

CCOC(=O)/C(=C\c1ccc(F)cc1)C(C)=O
inactive: NCI-H226 35.5 µM | MDA-N 37.8 µM | UACC-62 18.9 µM | NCI-H23 21.2 µM | OVCAR-8 29.2 µM | 786-0 22.3 µM | HCT-116 29.2 µM | Malme-3M 19.2 µM | MDA-MB-231 22.6 µM | M14 22.9 µM | U-251 19.1 µM | MCF7 29.4 µM | SR 19 µM | BT-549 21.5 µM | SW-620 16.5 µM | EKVX 22.3 µM | HOP-92 15.1 µM | SF-268 29.1 µM | PC-3 17.1 µM

CCCCCCCCCCCCCCCC(=O)N(CCCCCCCCCCC(=O)O)CC(O)C(O)C(OC1OC(CO)C(O)C(O)C1O)C(O)CO (stereo not given)
inactive: NCI-H226 > 100 µM | MDA-N 34.7 µM | UACC-62 18.9 µM | NCI-H23 40.9 µM | OVCAR-8 27.1 µM | 786-0 74.5 µM | HCT-116 49.2 µM | Malme-3M 19.5 µM | MDA-MB-231 > 100 µM | M14 20.7 µM | U-251 18 µM | MCF7 53.6 µM | SR 29.1 µM | BT-549 25.4 µM | SW-620 22.1 µM | EKVX 37.6 µM | HOP-92 41.3 µM | SF-268 21.3 µM | PC-3 37.8 µM
